Reference: US10921327B2, “Probes for quantitative imaging of thiols in various environments” (Baylor College of Medicine, priority 2014, dated 2021)
Entries after “also recorded” stand apart in the source; their conditions may differ. Structures can show the parent of a compound that is named as a salt. Marks after values point to notes of the source that are not given here.

Key:
[1] = Solubility; type: physicochemical; conditions: for solubility: PBS buffer, aqueous buffer
[2] = Reactivity of probes against β-mercaptoethanol in DMSO; type: binding
Description: (§1) Compounds 3b-d were dissolved in DMSO (10 mM) and 1 eq of 2 M β-mercaptoethanol (BME) was added. Compounds 3a and TQ Green were dissolved in PBS buffer (10 mM, pH 7.4) with 1% DMSO. GSH solution was added to reach a final concentration of 80 mM with compound 3a at 10 μM and TQ Green at 16 μM, respectively. All solutions were then monitored continuously with UV-Vis and fluorimeter for 2 hours (Table 1).

[3] = system: cells; assay: Confocal imaging of probe interacting with cells (cell penetration); type: cell-based
Description: FIG. 10 provides confocal images at 488 nm channel of TQ Green (acid form, FIG. 10A), and TQ Green-AM (ester form, FIG. 10B) interacting with cells.
All cell lines used in this study were purchased from American Type Culture Collection (ATCC) and grown in DMEM (Gibco, 11965) media supplemented with 10% FBS and 1% 1003 Pen Strep (Gibco). Cells were cultured under a controlled atmosphere (37° C., 5% CO2). Glass dishes were used for cell culture due to confocal scanning requirements. Cells were treated with TQ Green-AM (20 nM-1 μM with 0.0025-1% DMSO in PBS) for 30 minutes, followed by two washing steps with tryptan blue and PBS prior to imaging. Fluorescent images were acquired with 405 nm laser/430-470 nm filter and 488 nm laser/575-620 nm filter. All the microscope settings were kept consistent in each experiment.

[4] = Hydrolysis of TQ Green-AM in PBS and diluted HeLa cell lysate (HPLC UV-vis/MS); type: in vitro ADME; conditions: 40 μM, 37° C.
Description: In order to allow TQ Green to efficiently penetrate into cells for GSH measurements, Applicants converted the carboxylic acid group to an acetoxymethyl (AM) ester (FIG. 10). Once inside cells, the AM ester will be readily hydrolyzed by esterases to regenerate TQ Green. To verify this, Applicants incubated TQ Green-AM (FIG. 11, 40 μM) in PBS for 2 hours and in a 500 times diluted HeLa cell lysate for 10 hours at 37° C. (Note: the dilution factor for the cell lysate is calculated based on the fact that ˜400,000 of HeLa cells, which have a total volume of ˜2 μL, were lysed in 1 mL of lysis buffer, resulting in 500 times dilution of cellular components, Table 3). A mixture of TQ Green and TQ Green-AM standard samples and the reaction mixtures after incubation in PBS and in cell lysate were separated using high performance liquid chromatography (HPLC) with a tandem of UV-vis and mass spectrometer (MS) detectors.
TQ Green-AM (40 μM) was incubated in PBS for 2 hours and in a 500 times diluted HeLa cell lysate for 10 hours at 37° C. The reaction products were analyzed by HPLC with a tandem of UV-vis and MS detectors. Analytical standards TQ Green and TQ Green-AM (red trace C) were used to determine the retention time of the corresponding compounds. […] Under the elution conditions used, TQ Green and TQ Green-GSH cannot be separated. However, their identities were confirmed by MS. […]

[5] = methanol; cited from earlier work
[6] = UV-Vis absorption, fluorescence and quantum yield; type: physicochemical; conditions: for Quantum Yield (PBS): λex = 479 nm (TQ Green), 406 nm (TQ Green-GSH)
Description: TQ Green absorbs at 479 nm and fluoresces at 590 nm (λex=488 nm, FIG. 3). The extinction coefficients of TQ Green and TQ Green-GSH at their maximum absorption wavelengths are (2.3±0.2)×10^4 M^−1·cm^−1 (a, =479 nm, Table 2) and (1.6±0.2)×10^4 M^−1·cm^−1 (λmax=407 nm, Table 1), respectively. Upon reacting with GSH, the Abs and Fl peaks shift hypsochromically to 406 and 463 nm (λex=405 nm), respectively. The Abs of TQ Green and TQ Green-GSH (the adduct between TQ Green and GSH) are close to 488 and 405 nm, respectively, which are two commonly used laser wavelengths for confocal microscopes. […]
NMR spectra were recorded on a Varian NMR (^1H at 400 MHz) spectrometer. Chemical shifts (δ) were given in ppm with reference to solvent signals [^1H NMR: CDCl3 (7.26), CD3OD (3.31)]. UV-Vis measurements were performed with 2×10 mm quartz cuvette in Cary 60 UV-is Spectrometer. Fluorescence measurements were performed with the same quartz cuvette in Cary Eclipse Fluorescence Spectrophotometer with an excitation slit of 5 nm, an emission slit of 10 nm and PMT at 650 V. Flash chromatography was performed on a Teledyne ISCO CombiFlashRf200. Olympus FV1000 laser scanning confocal microscope system was used for cell imaging. ESI mass spectrometry was measured on a BrukerMS microTOF ESI, at the Shared Equipment Authority at Rice University. Flow cytometry was performed on BD LSR II Flow Cytometer at BCM core facilities.
As summarized in Table 5, quantum yields of synthesized GSH probes and a GSH adduct with Rhodamine 123 as the standard were analyzed. Quantum yields were determined using a comparative method described previously. The bromine atom on the phenyl ring potentially enhances the push-pull effect of the coumarin-based fluorophore, thus increases the quantum yield.

[7] = Log D in octanol-PBS (pH 7.4) biphasic system; type: physicochemical; conditions: pH 7.4, read-out: Log D, estimated value based on HPLC result
Description: To further understand TQ Green distribution between hydrophobic and hydrophilic environments, Applicants measured the Log D values of TQ Green and TQ Green-GSH using an octanol-PBS (pH 7.4) biphasic system (Table 2). […] In addition, Applicants discovered that the absorbance maximum of TQ Green shifts from 480 nm to 455 nm when changing the solvents from PBS to octanol. Applicants hypothesize that if TQ Green is distributed in lipid membranes, the absorbance maximum and fluorescence intensity will change. […] Consistent with the Log D measurements, this experiment also supports the hypothesis that TQ Green accumulates in lipid membranes. Considering the high quantum yield of TQ Green in hydrophobic solvents, lipid enrichment of TQ Green seemingly complicates intracellular GSH quantification. […] However, the Kd′ values may be different under calibration conditions and inside cells, which may introduce a systemic error.

[8] = Reaction kinetics and reversibility of probe with GSH (UV-Vis); conditions: 10 mM GSH in PBS, room temperature; TQ Green 16 μM, probe 3a 10 μM
Description: The reaction between TQ Green and GSH is reversible.
The second-order rate constant between TQ Green and GSH is 0.150±0.001M^−1·s^−1. There were no appreciable Abs changes observed after 20 minutes. Following a pause for another 80 minutes to ensure that the equilibrium between TQ Green and GSH was fully established, Applicants added two equivalents of an irreversible Michael acceptor (5,6-dihydro-2H-pyran-2-one) to deplete all the GSH in solution (FIG. 4A).
GSH in PBS was added to a solution of TQ Green in PBS buffer (10 mM, pH 7.4) containing 1% DMSO. The final concentrations of GSH and TQ Green were 10 mM and 16 μM, respectively. The solutions were then monitored continuously with UV-Vis spectrometer (FIGS. 21A-D).

[9] = Equilibrium (dissociation constant) of probe and GSH reaction, UV-Vis/fluorescence; type: binding; conditions: reaction with various concentration of GSH in water/PBS pH 7.4; based on UV-Vis; read-out: Kd′ observed (apparent) dissociation constant
Description: Applicants also determined Keq between TQ Green and GSH and the relationship of the ratiometric change as a function of GSH concentration. Kd′ is the apparent dissociation constant for the reaction between TQ Green and GSH. The following equation can be derived:
Plotting (R−Rmin)/(Rmax−R) as a function of GSH concentration afforded a superb linear relationship with r^2=0.999 (FIGS. 6-7).
TQ Green was dissolved in PBS buffer (10 mM, pH 7.4) containing 1% DMSO with concentration at 32 μM. GSH was dissolved in the same PBS buffer with concentration from 0-80 mM. Above solutions were mixed at 1:1 ratio. All solutions were protected with nitrogen and stored in glove box to prevent any oxygen entering the solution. Samples of all solutions were taken out at 1, 18, 72, and 144 hours after mixing. UV-Vis and fluorescence were measured for all solutions.
as §1

[10] = 10 mM solution, capped tube, 10 hour time period, HPLC 254 nm
Description: A GSH solution (10 mM) was placed in a capped Eppendorf tube. Samples of solution were taken out for HPLC measurement every two hours. […] The percentage was calculated from the HPLC peak area monitored at 254 nm.

[11] = cited from earlier work
[12] = system: PANC-1 cells; assay: GSH level changes in PANC-1 cells upon DEM treatment (TQ Green live imaging); type: cell-based
Description: PANC-1 cells were treated with diethyl maleate (50 μM) for 24 hours and 2 hours to inhibit and stimulate GSH levels, respectively. All the cells were imaged 24 hours after starting the experiment. Results are statistical analyses of more than 25 cells. P values shown are based on unpaired student t-tests. Error bars represent standard deviations.
Applicants also treated PANC-1 cells with DEM for a very short time to stimulate the uptake of cysteine, thus increasing the GSH levels. After removal of DEM, the cells were further incubated under normal conditions for an additional 22 hours before imaging. […] Importantly, the GSH level obtained in DEM non-treated cells after 24 hours was essentially the same as the value measured at time zero (P=0.63), indicating excellent reproducibility of live imaging based GSH quantification.
PANC-1 cells were incubated with DEM (50 μM) for 2 hours for stimulation of cysteine uptake. After replacing with fresh medium, cells were cultured at normal conditions for another 22 hours. A separate dish of PANC-1 cells were incubated with DEM (50 μM) as an inhibitor for 24 hours. […] GSH concentrations were calculated based on the calibration curve. FACS was performed from harvested cells after treatment, fluorescent intensities were recorded with 405 nm laser/420-460 nm filter (pacific blue channel), and 488 nm laser/515-545 nm filter (FITC channel). […]

For `CCN(CC)c1ccc2cc(/C=C(\C)C(=O)c3ccccc3)c(=O)oc2c1` [Compound 3c], the solubility [1] was < 10 µM and the “Michael addition between thiol and probe” value [2] was “significantly blocks the Michael addition”.
In the case of `CCN(CC)c1ccc2cc(/C=C/C(=O)c3ccccc3)c(=O)oc2c1` [Compound 3b], the solubility [1] is reported as < 10 µM.
For `CCN(CC)c1ccc2cc(/C=C/C(=O)c3ccc(C(=O)OCOC(C)=O)cc3Br)c(=O)oc2c1` [TQ Green-AM], the “Cell penetration (confocal, 488 nm channel)” value [3] was “able to penetrate through cell the membrane”, the “Hydrolysis in diluted cell lysate” value ([4]; 500 times diluted HeLa cell lysate, 10 hours) was “completely converted to a mixture of TQ Green and TQ Green-GSH adduct; also recorded: completely hydrolyzed” and the “Hydrolysis in PBS” value ([4]; PBS, 2 hours) was “resistant to hydrolysis; also recorded: did not show appreciable hydrolysis”.
For `COC(=O)c1ccccc1-c1c2ccc(=N)cc-2oc2cc(N)ccc12.Cl` [Rhodamine 123], the “Quantum Yield, used as standard” value [5] is listed as 0.94*.
With `CCN(CC)c1ccc2cc(C(CC(=O)c3ccc(C(=O)O)cc3Br)SCC(NC(=O)CCC(N)C(=O)O)C(=O)NCC(=O)O)c(=O)oc2c1` (stereo not shown) [TQ Green-GSH] the “Abs Max Wavelength” value ([6]; PBS pH 7.4) was 406 nm, the “Fl Emission Max Wavelength” value ([6]; PBS pH 7.4, λex = 488 nm (TQ Green), λex = 405 nm (TQ Green-GSH)) was 463 nm and the “Quantum Yield (PBS)” value [6] was 0.0059±0.0003. For the same molecule, the “Quantum Yield (PBS)” value ([6]; listed as drawing 20) was 0.0059 ± 0.0003, the logD [7] was < -1 and the Solubility in methanol ([1]; methanol) was “^aTQ Green-GSH is not soluble in methanol”. For the same molecule, the Solubility in octanol [1] was “not soluble”.
For `CCN(CC)c1ccc2cc(/C=C/C(=O)c3ccc(C(=O)O)cc3)c(=O)oc2c1` [Compound 3a], the “Time to reach 95% of conversion” value [8] was ~6 min, the “Quantum Yield (Methanol)” value ([6]; methanol, Rhodamine 123 as standard) was 0.062 ± 0.002 and the Kd [9] was 1500 µM. For the same molecule, the solubility [1] was > 500 µM.
For `N[C@@H](CCC(=O)N[C@@H](CS)C(=O)NCC(=O)O)C(=O)O` [GSH, glutathione], the “GSH oxidized in air” value [10] was “About 20%” and the Solubility in octanol [1] was “not soluble”.
In the case of `FC(F)(F)c1ccc(S)cc1` [p-trifluorobenzenethiol], the pKa [11] is given as 5.5.
In the case of `CCOC(=O)/C=C\C(=O)OCC` [DEM, diethyl maleate], the “Increase in GSH levels” value ([12]; 50 μM for 2 hours, then 22 hours normal conditions (stimulation)) is reported as 28% and the “Decrease in GSH levels” value ([12]; 50 μM for 24 hours (inhibition)) is reported as 27%.
In the case of `CCN(CC)c1ccc2cc(/C=C/C(=O)c3ccccc3O)c(=O)oc2c1` [Compound 3d], the solubility [1] is reported as < 10 µM and the Kd ([2]; β-mercaptoethanol in DMSO, read-out: Kd′ observed dissociation constant) is reported as ~2000 µM.
